Experiments:
Assay type in all cases: cell-based, human
[1] = system: T2 cells; test: Caspase3 based CTL killing assay, TIL2661 against peptide-pulsed T2 cells; conditions: T2 pulsed with 10 μM peptide, anti-caspase3 staining, flow cytometry
Source text: T cells play a primary role in adaptive immunity against infections and tumorigenesis, and therapies based on manipulating T-cell activation have shown promise in cancer treatment. To determine the function of CCNI-ED specific T cells in mediating tumor cell killing, the HLA-A*02:01 expressing lymphoblast cell line T2, which is lacking expression of the transporter associated with antigen processing (TAP) and thus incapable of presenting endogenous peptides, were employed. The CCNI-WT or CCNI-ED peptide were pulsed onto T2 cells, co-cultured with TIL2661 in different ratios, and then measured T-cell mediated target cell death based on anti-caspase3 staining and subsequent flow cytometric quantification. […]
T cell-mediated cell killing was analyzed using a flow cytometry-based method by detecting T cell-induced caspase-3 cleavage in target cells. […] T cell-mediated caspase-3 cleavage was measured by intracellular staining with Cytofix/Cytoperm reagent (BD Biosciences, 554772) and PE conjugated anti-cleaved caspase-3 antibody (BD Bioscience, 550821) and the number of pre-apoptotic cells were determined by flow cytometry.

[2] = system: melanoma TILs; test: IFNγ ELISPOT of melanoma TILs incubated with synthetic peptide; conditions: for IFNγ production by TILs (ELISPOT response to peptide): 15 HLA-A*02:01-expressing melanoma TILs, peptide 10 μM
Source text: To examine whether the detected HLA ligands are recognized by tumor-infiltrating lymphocytes (TILs) and if these TILs can kill cells presenting ED. For this analysis, matched autologous pairs of melanoma TILs and tumor cell lines were used. CCNI-ED peptide and its WT counterpart were synthesized and evaluated for their ability to activate TILs generated from human melanoma tumours.
Melanoma TILs were generated as described before. Briefly, melanoma tumor samples were either cut into 1-3 mm^2 fragments and put in culture in a tissue-treated 24-well plate, in complete TIL media (TIL-CM) consisting of RPMI 1640 (Gibco, 61871), 10% of human AB serum (GEMINI, 100-512), 0.1% of 2-mercaptoethanol (Gibco, 21985023), 1% of HEPES (Corning, 25-060), 1% sodium pyruvate (Invitrogen/Life Technologies, 11360-070), 1% of Glutomax (Gibco, 35050061), 1% PenStrep (ThermoFisher, 15070063) plus 6000 U/mL of human IL-2 or put in culture after the tumor samples were enzymatically digested by collagenase for 1 h at 37° C. followed by centrifugation using a multi-layer Ficoll gradient (100% and 75%, Ficoll-Paque PLUS, GE, 17-1440-02) where the 100% layer was collected for TILs. Every 3 days, half of the medium was replaced with fresh medium and the TIL culture was split to keep the cells at a density of 1×10^6/mL. TILs were expanded between 2 to 5 weeks, depending on the TIL lines. To increase the number of TILs available for experiments, the lines were further expanded using the rapid expansion protocol (REP). In brief, 1.5×10^5 primary TILs generated above were cultured with 27×10^6 feeder cells together with 0.6 mg soluble anti-CD3 monoclonal antibody (OKT3 clone, Muronomab—Abbott Labs). The feeder cells are peripheral blood mononuclear (PBMC) cells mixed from at least 5 healthy donors and irradiated at 5,000 cGy for 20 minutes prior to culture in order to prevent their proliferation during the REP. 6,000 U/mL IL-2 was added at the second day and half of the medium was recovered and replaced with fresh medium containing 50% of TIL-CM and 50% of AIM-V medium (Invitrogen, 12055-083) every 3 days to keep TIL density between 0.5-2×10^6/mL. The cultured TILs were harvested at day 14 for functional analysis or frozen in human serum with 10% DMSO (Thermo Fisher, 67-68-5). Autologous tumor cell lines were also established from the enzymatically digested tumours followed by the multi-layer Ficoll gradient where the 75% layer was collected and put in culture in complete tumor media (RPMI 1640, Gibco, 61871) containing 10% FBS, 1% HEPES (Corning, 25-060), 1% sodium pyruvate (Invitrogen/Life Technologies, 11360-070), 1% insulin/selenium/transferrin (Gibco, 51300), 0.2% MycoZap-PR (Lonza, VZA-2011). All tumor samples were HLA typed at the HLA-A locus in the MD Anderson HLA Typing Laboratory. […]

[3] = system: 293-A2 cells; test: IFNγ ELISPOT of Ted10 with peptide-pulsed or CCNI-transfected 293-A2 cells; conditions: 293-A2 cells pulsed with peptide
Protocol: To investigate this relationship on cellular level, CCNI-ED10-specific effector T cells (Ted10) were generated from HLA-A*02:01-expressing normal peripheral blood mononuclear cells (PBMCs) using an established method.
IFNγ Enzyme-linked immunospot (ELISPOT) assay was performed to detect T-cell responses. MultiScreen 96 well filter plates (Millipore, MAHAS4510) were coated over night at 4° C. with 75 μL/well of […] anti-human IFNγ capture antibody (Mabtech AB, 3420-3-1000). TILs or CCNI-ED specific T cells (Ted10) were thawed and cultured with 1000U of human IL-2/mL overnight. On the next day, before performing ELISPOT assay, T cells were starved with IL-2 free medium for 6 hours. […] After 18 hours of cultivation at 37° C. and 5% CO2, the plates were incubated with 1 ng/mL of Biotinylated anti-human IFNγ monoclonal antibody (Mabtech, 3420-6-1000) for one hour, stained with ExtrAvidine®-Alkaline phosphatase (Sigma-Aldrich, E2636) and IFNγ positive spots were detected with BCIP/NBT Membrane Alkaline Phosphatase Substrate (Sigma, 11697471001). Plates were scanned and counted using the ImmunoSpot® ELISPOT analyzer (Shaker Heights, Ohio) to determine the number of spots/well. […]

Sequence | TIL2661 mediated killing of peptide-pulsed T2 cells [1] | IFNγ production by TILs (ELISPOT response to peptide) ([2]; triplicates) | IFNγ ELISPOT response of TIL to peptide ([2]; TIL2576, parallel assay with the same TILs) | IFNγ production by Ted10 (ELISPOT) [3] | number of HLA-A*02:01-expressing TILs that responded (TIL2678, TIL2661, TIL2559) ([2]; IFNγ ELISPOT, triplicates)
SLLDRFLATV (listed as Homo sapiens) [CCNI-WT10, non-edited wildtype counterpart of CCNI-ED10, reference compound] | CCNI-ED10, rather than CCNI-WT10, to T2 cells facilitated target killing | none of the TILs responded | – | – | –
LLDGFLATV (listed as Homo sapiens) [CCNI-ED9, RNA editing-derived HLA peptide, editing site CCNI R75G] | – | – | weakly reacted | – | –
SLLDGFLATV (listed as Homo sapiens) [CCNI-ED10, RNA editing-derived HLA peptide, editing site CCNI R75G] | facilitated target killing | strongly responded | – | potently activated | 3 out of 15
